Measurements taken from ChEMBL document CHEMBL5034037, “Synthesis, Characterization, and Preclinical Evaluation of a Small-Molecule Prostate-Specific Membrane Antigen-Targeted Monomethyl Auristatin E Conjugate” (J Med Chem, 2021).
The source made the active and inactive calls. No cut-off for these calls is given here. *1 amine or outer side, *2 acyl side, *3 side chain or, on linkers, in order; H or OH if unused. Where a SMILES comes first, the peptide text is derived from it. [ ]: non-standard residue; d: D form. The star is where a group is joined. GluureaLys(ε-3-ClBenzyl) = O=C(O)CC[C@H](NC(=O)N[C@@H](CCCCN(Cc1cccc(Cl)c1)*)C(=O)O)C(=O)O; Dolaproine = CO[C@@H]([C@@H]1CCCN1)[C@@H](C)C(=O)O; Dil = CC[C@H](C)[C@H](NC)[C@@H](CC(=O)O)OC; X1 = O=C(CCCc1cn(CCCN[*:1])nn1)[*:2]; PABC = O=C(OCc1ccc(N[*:1])cc1)[*:2]; X2 = C[C@@H](N*)[C@@H](O)c1ccccc1; Cit = NC(=O)NCCC[C@H](N)C(=O)O; Suc = O=C(CCC(=O)[*:2])[*:1]; NMeV = CN[C@H](C(=O)O)C(C)C; Ahx = NCCCCCC(=O)O

What was measured:
[1] = Toxicity in rat assessed as morphological changes in spleen pulp at 150 to 225 microg/kg, iv; assay type: tissue-based; settings: in vivo, dose 150-225 µg/kg
Cytochrome P450 2C19 [2] = biological target: T1, Cytochrome P450 2C19 (Homo sapiens, UniProt P33261); assay: Drug metabolism assessed as human liver microsome CYP2C19-mediatd metabolism; assay type: ADME; settings: microsomes
T1 sequence (P33261 whole entry): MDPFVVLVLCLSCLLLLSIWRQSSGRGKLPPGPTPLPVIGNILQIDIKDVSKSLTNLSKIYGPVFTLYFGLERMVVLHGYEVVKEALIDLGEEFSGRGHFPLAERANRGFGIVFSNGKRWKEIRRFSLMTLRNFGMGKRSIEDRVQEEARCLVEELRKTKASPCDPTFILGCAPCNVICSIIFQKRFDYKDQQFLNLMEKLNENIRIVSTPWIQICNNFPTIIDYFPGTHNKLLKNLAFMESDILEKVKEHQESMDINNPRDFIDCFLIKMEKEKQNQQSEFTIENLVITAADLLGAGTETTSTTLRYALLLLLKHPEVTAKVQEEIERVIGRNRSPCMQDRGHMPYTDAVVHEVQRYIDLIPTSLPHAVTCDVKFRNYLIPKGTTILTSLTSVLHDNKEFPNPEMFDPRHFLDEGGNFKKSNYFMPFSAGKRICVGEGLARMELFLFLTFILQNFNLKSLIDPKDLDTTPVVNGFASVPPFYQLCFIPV

CWR22R [3] = assay: Induction of intracellular reactive oxygen species production in human 22Rv1 cells incubated for 1 hr measured at CC50 concentration by amperometric method; assay type: functional, cell-based
[4] = Toxicity in rat assessed as morphological changes in heart at 150 to 225 microg/kg, iv; assay type: tissue-based; settings: in vivo, dose 150-225 µg/kg
[5] = Chronic toxicity in rat assessed as mortality rate at 10 microg/kg, iv dosed measured after 3 days; assay type: organism-based; settings: in vivo, 0.01 mg/kg, dose 10 µg/kg, time 3 day, read-out: Activity
Cytochrome P450 2C19 [6] = biological target: T1, Cytochrome P450 2C19; assay: Inhibition of CYP2C19 in human liver microsome using mephenytoin as substrate; assay type: ADME, microsomes
[7] = Toxicity in rabbit assessed as morphological changes in capsule of the kidney at 81 to 122 microg/kg, iv; assay type: tissue-based, Oryctolagus cuniculus; settings: in vivo, dose 81-122 µg/kg
[8] = Antitumor activity against human 22Rv1 cells xenografted in mouse assessed as tumour growth inhibition at 0.3 mg/kg, ip daily treated for 5 days after 18 days of tumor implantation measured upto 15 days; assay type: functional, CWR22R; settings: 22Rv1, ip, 120 h, time 5 day, read-out: TGI
[9] = Ratio of AUC (t to infinity) to AUC (0 to infinity) in rabbit plasma at 0.81 mg/kg, iv; assay type: ADME, organism-based, Oryctolagus cuniculus; settings: in vivo
[10] = AUC (0 to t) in rabbit at 0.81 mg/kg, iv; assay type: ADME, organism-based, Oryctolagus cuniculus; design: dose 0.81 mg/kg; settings: in vivo
Salmonella typhimurium [11] = assay: Mutagenecity in Salmonella typhimurium TA97 in presence of metabolic activation system at 10000 ug/ml by Ames test; assay type: toxicity, organism-based; settings: salmonella enterica subsp. enterica serovar typhimurium; dose 10000 µg/ml
[12] = Toxicity in rabbit assessed as hemorrhage at 81 to 122 microg/kg, iv; design: species or system Oryctolagus cuniculus; settings: in vivo, dose 81-122 µg/kg
[13] = Toxicity in rat assessed as morphological changes in brain ventricle at 150 to 225 microg/kg, iv; assay type: tissue-based; settings: in vivo, dose 150-225 µg/kg
[14] = Half life in rabbit at 0.81 mg/kg, iv; assay type: ADME, organism-based, Oryctolagus cuniculus; settings: in vivo
[15] = Chronic toxicity in rat assessed as change in acidity at […], iv administered once every 3 weeks for 3 months; assay type: organism-based; settings: in vivo, 504 h, dose lower 150 mg/kg
[16] = Toxicity in rat assessed as morphological changes in peritoneum at 150 to 225 microg/kg, iv; assay type: tissue-based; settings: in vivo, dose 150-225 µg/kg
[17] = Toxicity in rat assessed as morphological changes in kidney at 150 to 225 microg/kg, iv; assay type: tissue-based; settings: in vivo, dose 150-225 µg/kg
Salmonella typhimurium [18] = assay: Mutagenecity in Salmonella typhimurium TA98 without metabolic activation system at 10000 ug/ml by Ames test; assay type: toxicity, organism-based; settings: salmonella enterica subsp. enterica serovar typhimurium; dose 10000 µg/ml
Salmonella typhimurium [19] = assay: Mutagenecity in Salmonella typhimurium TA98 without metabolic activation system at 1000 ug/ml by Ames test; assay type: toxicity, organism-based; settings: salmonella enterica subsp. enterica serovar typhimurium; dose 1000 µg/ml
[20] = Toxicity in rabbit assessed as traumatic vein injury at 81 to 122 microg/kg, iv; assay type: tissue-based, Oryctolagus cuniculus; settings: in vivo, dose 81-122 µg/kg
[21] = Toxicity in rat assessed as morphological changes in tongue at 150 to 225 microg/kg, iv; assay type: tissue-based; settings: in vivo, dose 150-225 µg/kg
Salmonella typhimurium [22] = assay: Mutagenecity in Salmonella typhimurium TA97 without metabolic activation system at 10 ug/ml by Ames test; assay type: toxicity, organism-based; settings: salmonella enterica subsp. enterica serovar typhimurium; dose 10 µg/ml
[23] = Toxicity in rat assessed as morphological changes in mucosae of mouth at 150 to 225 microg/kg, iv; assay type: tissue-based; settings: in vivo, dose 150-225 µg/kg
CWR22R [24] = assay: Induction morphological changes in human 22Rv1 cells assessed as decrease in cell membrane stiffness measured upto 1 hr; assay type: functional, cell-based; settings: time hrs <=1
Salmonella typhimurium [25] = assay: Mutagenecity in Salmonella typhimurium TA97 in presence of metabolic activation system at 100 ug/ml by Ames test; assay type: toxicity, organism-based; settings: salmonella enterica subsp. enterica serovar typhimurium; dose 100 µg/ml
[26] = Toxicity in rabbit assessed as morphological changes in mucosa of thyroid gland at 81 to 122 microg/kg, iv; assay type: tissue-based, Oryctolagus cuniculus; settings: in vivo, dose 81-122 µg/kg
[27] = Toxicity in rat assessed as morphological changes in brain sulcus at 150 to 225 microg/kg, iv; assay type: tissue-based; settings: in vivo, dose 150-225 µg/kg
[28] = Toxicity in rabbit assessed as morphological changes in lungs at 81 to 122 microg/kg, iv; design: species or system Oryctolagus cuniculus; settings: in vivo, dose 81-122 µg/kg
[29] = Toxicity in rat assessed as morphological changes in spleen at 150 to 225 microg/kg, iv; assay type: tissue-based; settings: in vivo, dose 150-225 µg/kg
[30] = Toxicity in rat assessed as morphological changes in cerebral membrane at 150 to 225 microg/kg, iv; settings: in vivo, dose 150-225 µg/kg
Salmonella typhimurium [31] = assay: Mutagenecity in Salmonella typhimurium TA98 without metabolic activation system at 10 ug/ml by Ames test; assay type: toxicity, organism-based; settings: salmonella enterica subsp. enterica serovar typhimurium; dose 10 µg/ml
PC-3 = assay: Induction morphological changes in human PC-3 cells assessed as decrease in cell membrane stiffness measured immediately after MMAE addition; assay type: functional, cell-based; settings: time hrs <=1
Cytochrome P450 1A2 = biological target: T2, Cytochrome P450 1A2 (Homo sapiens, UniProt P05177); assay: Inhibition of CYP1A2 in human liver microsome using phenacetin as substrate; assay type: ADME, microsomes
T2 sequence (P05177 whole entry): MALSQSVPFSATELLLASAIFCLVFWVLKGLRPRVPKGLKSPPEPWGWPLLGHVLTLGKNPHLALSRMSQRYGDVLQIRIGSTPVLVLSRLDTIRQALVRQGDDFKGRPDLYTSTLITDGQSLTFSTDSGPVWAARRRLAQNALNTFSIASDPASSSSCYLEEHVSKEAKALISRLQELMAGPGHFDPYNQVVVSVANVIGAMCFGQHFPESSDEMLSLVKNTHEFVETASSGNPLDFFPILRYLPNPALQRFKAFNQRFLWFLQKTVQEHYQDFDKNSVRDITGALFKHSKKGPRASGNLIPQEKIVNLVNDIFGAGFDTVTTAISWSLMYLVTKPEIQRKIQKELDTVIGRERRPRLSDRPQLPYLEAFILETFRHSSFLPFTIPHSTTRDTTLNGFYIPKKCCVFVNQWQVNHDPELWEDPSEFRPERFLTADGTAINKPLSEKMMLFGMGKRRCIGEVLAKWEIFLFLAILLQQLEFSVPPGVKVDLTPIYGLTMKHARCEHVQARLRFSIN

[32] = Toxicity in rabbit assessed as morphological changes in aortic intima at 81 to 122 microg/kg, iv; design: species or system Oryctolagus cuniculus; settings: in vivo, dose 81-122 µg/kg
[33] = Elimination rate constant in Wistar rat at 1.5 mg/kg, iv; assay type: ADME, organism-based; settings: in vivo
[34] = Stability of the compound in human liver microsome assessed as half life; assay type: ADME; settings: liver microsomes
[35] = Toxicity in rabbit assessed as morphological changes in abdominal cavity at 81 to 122 microg/kg, iv; design: species or system Oryctolagus cuniculus; settings: in vivo, dose 81-122 µg/kg
[36] = Toxicity in rat assessed as morphological changes in liver at 150 to 225 microg/kg, iv; assay type: tissue-based; settings: in vivo, dose 150-225 µg/kg
[37] = Initial plasma concentration in rabbit plasma at 0.81 mg/kg, iv; assay type: ADME, organism-based, Oryctolagus cuniculus
Cytochrome P450 2C9 = Cytochrome P450 2C9 (Homo sapiens, UniProt P11712); assay: Inhibition of CYP2C9 in human liver microsome using tolbutamide as substrate; assay type: ADME, microsomes
Cytochrome P450 2C9, sequence (P11712 whole entry): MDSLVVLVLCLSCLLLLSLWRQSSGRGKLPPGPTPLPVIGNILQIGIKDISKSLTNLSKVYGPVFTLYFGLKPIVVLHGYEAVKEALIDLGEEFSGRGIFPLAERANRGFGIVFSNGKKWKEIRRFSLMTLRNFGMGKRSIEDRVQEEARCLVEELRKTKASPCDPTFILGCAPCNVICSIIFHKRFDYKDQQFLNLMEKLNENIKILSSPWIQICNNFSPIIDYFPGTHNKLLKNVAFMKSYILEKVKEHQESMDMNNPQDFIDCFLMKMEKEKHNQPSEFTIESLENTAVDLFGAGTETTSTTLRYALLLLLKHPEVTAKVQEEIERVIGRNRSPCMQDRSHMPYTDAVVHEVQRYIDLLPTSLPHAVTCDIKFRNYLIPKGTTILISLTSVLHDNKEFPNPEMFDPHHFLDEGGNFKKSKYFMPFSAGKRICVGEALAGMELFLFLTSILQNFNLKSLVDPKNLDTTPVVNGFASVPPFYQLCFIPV

In the case of `CC[C@H](C)[C@@H]([C@@H](CC(=O)N1CCC[C@H]1[C@H](OC)[C@@H](C)C(=O)N[C@H](C)[C@@H](O)c1ccccc1)OC)N(C)C(=O)[C@@H](NC(=O)[C@H](C(C)C)N(C)C(=O)OCc1ccc(NC(=O)[C@H](CCCNC(N)=O)NC(=O)[C@@H](NC(=O)CCCc2cn(CCCNC(=O)[C@H](Cc3ccc(O)cc3)NC(=O)[C@H](Cc3ccccc3)NC(=O)CCC(=O)NCCCCCC(=O)N(CCCC[C@H](NC(=O)N[C@@H](CCC(=O)O)C(=O)O)C(=O)O)Cc3cccc(Cl)c3)nn2)C(C)C)cc1)C(C)C` ({GluureaLys(ε-3-ClBenzyl)-Ahx-Suc}-FY[X1]V[Cit][PABC][NMeV]V[Dil][Dolaproine]-X2), the Activity [1] is reported as “Non-Toxic”, the Drug metabolism (Cytochrome P450 2C19 [2]) is reported as “Metabolite_Notdetected” and the Activity (CWR22R [3]) is reported as “Active”. The Activity [4] was “Non-Toxic”, the mortality at 72 h [5] was 90% and the IC50 (Cytochrome P450 2C19 [6]) was greater than 25 µM. The Activity [7] was “Non-Toxic”, the inhibition in vivo at 0.3 mg/kg [8] was 77.4% and the Ratio [9] was 13%. For the same compound, the AUC(0-t) [10] was 31000 ng·h/mL, the Activity (Salmonella typhimurium [11]) was “Non-Toxic” and the Activity [12] was “Toxic”. The Activity [13] was “Non-Toxic”, the half-life [14] was 4.6 h and the Activity [15] was “Toxic”. For the same compound, the Activity [16] was “Non-Toxic”, the Activity [17] was “Non-Toxic” and the Activity (Salmonella typhimurium [18]) was “Non-Toxic”. The Activity (Salmonella typhimurium [19]) was “Non-Toxic”, the Activity [20] was “Toxic” and the Activity [21] was “Non-Toxic”. The Activity (Salmonella typhimurium [22]) was “Non-Toxic”, the Activity [23] was “Non-Toxic” and the Activity (CWR22R [24]) was “Active”. The Activity (Salmonella typhimurium [25]) was “Non-Toxic”, the Activity [26] was “Non-Toxic” and the Activity [27] was “Non-Toxic”. The Activity [28] was “Non-Toxic”, the Activity [29] was “Non-Toxic” and the Activity [30] was “Non-Toxic”. For the same compound, the Activity (Salmonella typhimurium [31]) was “Non-Toxic”, the Activity (PC-3) was “inactive” and the IC50 (Cytochrome P450 1A2) was greater than 25 µM. The Activity [32] was “Non-Toxic”, the k el [33] was 4.17e-05 s⁻¹ and the half-life [34] was 0.572 h. For the same compound, the Activity [35] was “Non-Toxic”, the Activity [36] was “Non-Toxic” and the C0 [37] was 11000 ng/mL. The IC50 (Cytochrome P450 2C9) was greater than 25 µM.
